Tests used:
[1] = Metabolic stability in mouse liver S9 fraction; assay type: in vitro ADME; settings: C57BL/6, liver S9 fraction; mouse liver S9, 1 µM
Experimental: page 57: 3. Biological evaluation 3.1 In vitro inhibition assays […] MMPs, TACE). […] inhibitor screening kits were purchased from Sigma-Aldrich (Saint Louis, MO). MMPs along with the SensoLyte 520 Generic MMP Activity Kit Fluorimetric were purchased from AnaSpec (Fremont, CA, USA). The assays were performed according to the guidelines of the respective manufacturer. Fluorescence signals were measured using a CLARIOstar plate reader (BMG Labtech, Ortenberg, Germany). 3.2 Kinetic solubility […] well were transferred into another 96-well plate and mixed with 148.5 µL of PBS. Plates were shaken for 5 min at 600 rpm at room temperature (r.t.), and the absorbance at 620 nm was measured. Absorbance values were normalized by blank subtraction and plotted using GraphPad Prism 8.4.2 (GraphPad Software, San Diego, CA, USA). Solubility (S) was […] 3.3 Lipophilicity determination LogD7.4 was analyzed using an HPLC−based method. The UV retention time of reference […] Linear […] Analysis was performed using a Vanquish Flex HPLC system with variable wavelength detector (Thermo Fisher, Dreieich, Germany) with the following conditions: EC150/2 NUCLEODUR C18 Pyramid column, 5 μM (Macherey Nagel, Düren, Germany); eluent A: 50 mM NH4OAc pH 7.4, eluent B: acetonitrile, and flow: 0.6 mL/min. […] 3.4 Metabolic stability in liver S9 fractions For the evaluation of combined phase I and phase II metabolic stability, the compound (1 μM) was incubated with 1 mg/mL pooled mouse liver S9 fraction (C57BL/6, Xenotech, Kansas Cit y, USA) or human liver S9 fraction (Corning, USA), 2 mM NADPH, 1 mM UDPGA, 10 mM MgCl2, 5 mM GSH and 0.1 mM PAPS at 37 °C for 120 min. The metabolic stability of testosterone, verapamil and ketoconazole were determined in parallel to confirm the enzymatic activity of S56 page 58: mouse S9 fractions, for human S9 testosterone, diclofenac and propranolol were used. The incubation was stopped after defined time points by precipitation of aliquots of S9 enzymes […] Samples were stored on ice until the end of the incubation and precipitated protein was removed by centrifugation (15 min, 4 °C, 4,000 g). Concentration of the remaining test compound at the different time points was analyzed by HPLC-MS/MS (TSQ Quantum Access MAX, Thermo Fisher, Dreieich, Germany) and used to determine half -life (t1/2) and intrinsic clearance (Clint). Species profiling was conducted as above using 0.5 mg/mL pooled mouse, rat or minipig liver microsomes (Xenotech, Kansas City, USA) with 2 mM NADPH and 10 mM MgCl2 and testosterone, verapamil and ketoconazole as reference compounds. 3.5 Plasma stability To determine stability in plasma, the compound (1 µM) was incubated with pooled CD -1 mouse/human/Wistar rat or Göttingen minipig plasma (Neo Biotech, Nanterre, France). Samples were taken by mixing aliquots with 4 volumes of acetonitrile containing internal standard (125 nM diphenhydramine). The plasma stability of procain, propantheline and diltiazem were determined in parallel to confirm the enzymatic activity. Samples were stored on ice until the end of the incubation and precipitated protein was removed by centrifugation (15 min, 4 °C, 4,000 g, two centrifugation steps). Concentration of the remaining test compound at the different time points was analyzed by HPLC-MS/MS (TSQ Quantum Access MAX, Thermo Fisher, Dreieich, Germany) and used to determine half-life (t1/2). Table S2: Additional in vitro ADMET data for selected dipeptides. n.d.: not determined. […] Compound Solubility PBS pH 7.4 [µM] Mouse Human Mouse Human […] S57

Plasma stability, human = assay type: in vitro ADME; settings: read-out: Plasma t1/2 Human
Experimental: To determine stability in plasma, the compound (1 µM) was incubated with pooled CD -1 […]
mouse/human/Wistar rat or Göttingen minipig plasma (Neo Biotech, Nanterre, France).
Samples were taken by mixing aliquots with 4 volumes of acetonitrile containing internal […]
standard (125 nM diphenhydramine). The plasma stability of procain, propantheline and diltiazem were determined in parallel to confirm the enzymatic activity. Samples were stored […]
on ice until the end of the incubation and precipitated protein was removed by centrifugation […]
(15 min, 4 °C, 4,000 g, two centrifugation steps). Concentration of the remaining test compound at the different time points was analyzed by HPLC-MS/MS (TSQ Quantum Access MAX, […]
Thermo Fisher, Dreieich, Germany) and used to determine half-life (t1/2).
Table S2: Additional in vitro ADMET data for selected dipeptides. n.d.: not determined.
Kinetic Liver S9 Clint [µL/mg/min] Plasma t1/2 [min] LogD7.4 […]
pH 7.4 [µM] Mouse Human Mouse Human

HEK293 cells = assay: Cytotoxicity HEK293; assay type: cell-based; settings: Homo sapiens, HEK293, read-out: HEK293 % inhibition at 100 µM (metabolic activity), 48 hours
Experimental: (§1) HepG2 (human hepatocellular carcinoma), HEK293 (human embryonal kidney) and A549
(§2) (human lung carcinoma) cells (2x10^5 cells per well) were seeded in 24-well in flat-bottomed
(§3) plates. Culturing of cells, incubations and OD measurements were performed as described
(§4) previously with small modifications.[14] Twenty-four hours after seeding the cells the incubation
(§5) was started by the addition of compounds in a final DMSO concentration of 1%. The living cell
(§6) mass was determined after 48 hours in a PHERAstar microplate reader (BMG labtech,
(§7) Ortenberg, Germany). Two independent measurements were performed for each compound.

A549 cells = assay: Cytotoxicity A549; assay type: cell-based; settings: Homo sapiens, A549, read-out: A549 % inhibition at 100 µM (metabolic activity), 48 hours
Experimental: as §1, §2, §3, §4, §5, §6, §7

[2] = tested on: Pseudomonas aeruginosa strain PA14; assay: Antibacterial effect on P. aeruginosa PA14 growth; assay type: cell-based; settings: PA14, read-out: P. aeruginosa PA14 % inhibition of growth at 100 µM, 18 h, 37 °C
Experimental: Table S14: Food consumption after treatment with (R)-30.
Table S15: Body and organ weights (gram) after treatment with (R)-30.
3.12 Antibacterial effects
As start OD600 of Pseudomonas aeruginosa strain PA14 we used 0.03 in a total volume of 200
µL in lysogeny broth containing the compounds predissolved in DMSO (max. 1%). Final
compound concentrations prepared from serial dilutions ranged from 3.125 to 100 µM (double
values for each concentration). The ODs were determined after addition of the compounds and
again after incubation for 18 h at 37 °C and 200 rpm in 96 well plates (Sarstedt, Nümbrecht,
Germany) using a FLUOStar Omega (BMG labtech, Ortenberg, Germany). Given percent (%)
inhibition values are means of at least two independent determinations. To obtain the values
for a given compound, their ODs were compared to those of DMSO controls. Concerning the […]

With CC(C)CC(C(=O)N[C@H](C(=O)Nc1ccc(Cl)c(Cl)c1)C1CCC1)P(=O)(O)O (stereo partly drawn) [compound 13] the microsomal CLint at 1 µM [1] was < 5.8 µL/min/mg, the half-life at 1 µM (Plasma stability, human) was > 2.5 h and the inhibition at 100 µM (HEK293 cells) was < 10%. For the same compound, the inhibition at 100 µM (A549 cells) was < 10% and the inhibition at 100 µM [2] was < 10%.

In the case of CC(C)CC(C(=O)N[C@H](C(=O)Nc1ccc(Cl)c(Cl)c1)C1CCCCC1)P(=O)(O)O (stereo partly drawn) [compound 14], the microsomal CLint at 1 µM [1] is reported as < 5.8 µL/min/mg, the half-life at 1 µM (Plasma stability, human) is reported as > 2.5 h and the inhibition at 100 µM (HEK293 cells) is reported as 51 ± 4%. The inhibition at 100 µM (A549 cells) was < 10% and the inhibition at 100 µM [2] was < 10%.

For CC(C)CC(C(=O)N[C@H](C(=O)Nc1ccc(Cl)c(Cl)c1)C(C)C)P(=O)(O)O (stereo partly drawn) [compound 9], the microsomal CLint at 1 µM [1] was < 5.8 µL/min/mg, the half-life at 1 µM (Plasma stability, human) was > 2.5 h and the inhibition at 100 µM (HEK293 cells) was < 10%. The inhibition at 100 µM (A549 cells) was < 10% and the inhibition at 100 µM [2] was < 10%.

In the case of CC(C)C[C@H](C(=O)N[C@H](C(=O)Nc1ccc(-n2ccnc2)cc1)C(C)C)P(=O)(O)O [(R)‐36], the microsomal CLint at 1 µM [1] is reported as < 5.8 µL/min/mg, the half-life at 1 µM (Plasma stability, human) is reported as > 2.5 h and the inhibition at 100 µM (HEK293 cells) is reported as 11 ± 9%. For the same compound, the inhibition at 100 µM (A549 cells) was < 10% and the inhibition at 100 µM [2] was < 10%.

With CC(=O)c1ccc(NC(=O)[C@@H](NC(=O)[C@@H](CC(C)C)P(=O)(O)O)C(C)C)cc1 [(R)‐30] the microsomal CLint at 1 µM [1] was < 5.8 µL/min/mg, the half-life at 1 µM (Plasma stability, human) was > 2.5 h and the inhibition at 100 µM (HEK293 cells) was < 10%. The inhibition at 100 µM (A549 cells) was < 10% and the inhibition at 100 µM [2] was < 10%.

With CC(=O)c1ccc(NC(=O)[C@@H](NC(=O)C(CC(C)C)P(=O)(O)O)C(C)C)cc1 (stereo partly drawn) [compound 30] the microsomal CLint at 1 µM [1] was < 5.8 µL/min/mg, the half-life at 1 µM (Plasma stability, human) was > 2.5 h and the inhibition at 100 µM (HEK293 cells) was < 10%. The inhibition at 100 µM (A549 cells) was < 10% and the inhibition at 100 µM [2] was < 10%.

Reference: PMC11984924, “Dipeptidic Phosphonates: Potent Inhibitors of Pseudomonas aeruginosa Elastase B Showing Efficacy in a Murine Keratitis Model” (Advanced Science, 2025)
